{"source": "patent US20160220569A1", "about": "“CDK4/6 Inhibitor Dosage Formulations For The Protection Of Hematopoietic Stem And Progenitor Cells During Chemotherapy” (G1 Therapeutics, Inc., priority 2015, published 2016)", "assay": "14-day oral gavage toxicokinetic study in rats", "type": "in vivo", "details": "rat, plasma, po; for concentration at 0.5 h / concentration at 1 h / concentration at 2 h / concentration at 4 h / concentration at 8 h / concentration at 12 h / concentration at 24 h / concentration at […]: rats; for concentration at 1 h: Day 14, 1 h; for concentration at 24 h: Day 14, 24 h; for half-life: read-out: t½ (converted)", "protocol": "Plasma was obtained from blood samples collected from rats in a composite sampling scheme, with 3 samples collected per sex, per dose, at each target collection time, as illustrated in Table 21 to Table 25. Samples were collected from the vehicle control group on Day 1 and Day 14 at 3 hour after administration. […] Blood samples were collected in tubes containing K3EDTA as an anticoagulant and placed on ice until processed to plasma via centrifugation. Samples were stored frozen at −80° C. until shipment to the bioanalytical laboratory for analysis.\nThe following parameters were determined:\nCmax: Maximum observed plasma concentration (ng/mL).\nA value of 0 ng/mL was assigned to all values below the lower limit of quantitation (BLQ, <10.0 ng/mL).\nAUC(0-inf): Area under the plasma concentration vs. time curve extrapolated from 0 to infinity (ng*h/mL), calculated as AUC(0-t)+AUC(t-inf) where AUC(t-inf) is calculated as last measurable concentration (CLast) divided by ke, where ke is the elimination rate constant determined by linear regression of the last three analytically measured points on the log plasma concentration vs. time curve. The selection criteria of the data points for inclusion in the calculation of ke required that at least three data points representing the terminal phase (after Tmax) were regressed and that R2≧0.850 when rounded.\nCL: Clearance (L/h/kg), calculated as the dose divided by AUC(0-t).\nVd: Volume of distribution (L/kg), calculated as dose divided by the product of ke and AUC(0-inf).\nVdss: Steady state volume of distribution (L/kg), calculated as clearance […] mean residence time, where mean residence time is calculated as the area under the first moment curve divided by AUC(0-t).\nt½: Elimination half-life (h), calculated as ln(2)/ke, where ke is the elimination rate constant determined by linear regression. Half-life was defined as not determined if regression criteria (specified in AUC(0-inf) above) were not met.\nCmax/Dose: Normalized Cmax, calculated as Cmax divided by total dose.\nAUC/Dose: Normalized AUC, calculated as AUC(0-t) divided by total dose.\nii. Statistical Analysis Mean and standard deviation (SD) were calculated in Watson. Values of BLQ were assigned a value of 0 ng/mL for mean calculations. Concentration values and derived TK parameters were reported to three significant figures.", "key": {"[1]": {"details": "both sexes, 15 mg/kg, Mean Compound 1 Plasma Concentration, oral 15 mg/kg, Overall"}, "[2]": {"details": "both sexes, 15 mg/kg, oral 15 mg/kg, Study Day 1, Overall"}, "[3]": {"details": "both sexes, 15 mg/kg, oral 15 mg/kg, Study Day 14, Overall"}, "[4]": {"details": "both sexes, 30 mg/kg, Mean Compound 1 Plasma Concentration, oral 30 mg/kg, Overall"}, "[5]": {"details": "both sexes, 30 mg/kg, oral 30 mg/kg, Study Day 1, Overall"}, "[6]": {"details": "both sexes, 30 mg/kg, oral 30 mg/kg, Study Day 14, Overall"}, "[7]": {"details": "female, 2 mg/kg, Compound 1 Plasma Concentration, Female, daily oral 2 mg/kg (Group 7), individual animals"}}, "note": "Read-outs that look alike come from different tables or passages of the source.", "data": [{"smiles": "CN1CCN(c2ccc(Nc3ncc4cc5n(c4n3)C3(CCCCC3)CNC5=O)nc2)CC1", "note": "[Compound 1, 2′-((5-(4-methylpiperazin-1-yl)pyridin-2-yl)amino)-7′,8′-dihydro-6′H-spiro[cyclohexane-1,9′-pyrazino[1′,2′:1,5]pyrrolo[2,3-d]pyrimidin]-6′-one]", "values": [{"measurement": "concentration at 0.5 h", "setting": "both sexes, 15 mg/kg, Mean Compound 1 Plasma Concentration, oral 15 mg/kg, Day 14, 0.5 h, Overall", "result": 955, "unit": "ng/mL"}, {"measurement": "concentration at 1 h", "setting": "[1]", "result": 1150, "unit": "ng/mL"}, {"measurement": "concentration at 2 h", "setting": "both sexes, 15 mg/kg, Mean Compound 1 Plasma Concentration, oral 15 mg/kg, Day 14, 2 h, Overall", "result": 1410, "unit": "ng/mL"}, {"measurement": "concentration at 4 h", "setting": "both sexes, 15 mg/kg, Mean Compound 1 Plasma Concentration, oral 15 mg/kg, Day 14, 4 h, Overall", "result": 1330, "unit": "ng/mL"}, {"measurement": "concentration at 8 h", "setting": "both sexes, 15 mg/kg, Mean Compound 1 Plasma Concentration, oral 15 mg/kg, Day 14, 8 h, Overall", "result": 1070, "unit": "ng/mL"}, {"measurement": "concentration at 12 h", "setting": "both sexes, 15 mg/kg, Mean Compound 1 Plasma Concentration, oral 15 mg/kg, Day 14, 12 h, Overall", "result": 715, "unit": "ng/mL"}, {"measurement": "concentration at 24 h", "setting": "[1]", "result": 95.3, "unit": "ng/mL"}, {"measurement": "AUC(0-inf)", "setting": "[2]", "result": 19900, "unit": "ng·h/mL"}, {"measurement": "AUC(0-t)", "setting": "[2]", "result": 19400, "unit": "ng·h/mL"}, {"measurement": "Cmax", "setting": "[2]", "result": 1490, "unit": "ng/mL"}, {"measurement": "Tmax", "setting": "[2]", "result": 2, "unit": "h"}, {"measurement": "half-life", "setting": "[2]", "result": 4.05, "unit": "h"}, {"measurement": "AUC(0-inf)", "setting": "[3]", "result": 18700, "unit": "ng·h/mL"}, {"measurement": "AUC(0-t)", "setting": "[3]", "result": 18100, "unit": "ng·h/mL"}, {"measurement": "Cmax", "setting": "[3]", "result": 1410, "unit": "ng/mL"}, {"measurement": "Tmax", "setting": "[3]", "result": 2, "unit": "h"}, {"measurement": "half-life", "setting": "[3]", "result": 4.47, "unit": "h"}, {"measurement": "concentration at 0.5 h", "setting": "both sexes, 30 mg/kg, Mean Compound 1 Plasma Concentration, oral 30 mg/kg, Day 1, 0.5 h, Overall", "result": 1790, "unit": "ng/mL"}, {"measurement": "concentration at 2 h", "setting": "both sexes, 30 mg/kg, Mean Compound 1 Plasma Concentration, oral 30 mg/kg, Day 1, 2 h, Overall", "result": 2360, "unit": "ng/mL"}, {"measurement": "concentration at 4 h", "setting": "both sexes, 30 mg/kg, Mean Compound 1 Plasma Concentration, oral 30 mg/kg, Day 1, 4 h, Overall", "result": 2380, "unit": "ng/mL"}, {"measurement": "concentration at 8 h", "setting": "both sexes, 30 mg/kg, Mean Compound 1 Plasma Concentration, oral 30 mg/kg, Day 1, 8 h, Overall", "result": 2160, "unit": "ng/mL"}, {"measurement": "concentration at 12 h", "setting": "both sexes, 30 mg/kg, Mean Compound 1 Plasma Concentration, oral 30 mg/kg, Day 1, 12 h, Overall", "result": 1800, "unit": "ng/mL"}, {"measurement": "concentration at 0.5 h", "setting": "both sexes, 30 mg/kg, Mean Compound 1 Plasma Concentration, oral 30 mg/kg, Day 14, 0.5 h, Overall", "result": 1270, "unit": "ng/mL"}, {"measurement": "concentration at 1 h", "setting": "[4]", "result": 1880, "unit": "ng/mL"}, {"measurement": "concentration at 2 h", "setting": "both sexes, 30 mg/kg, Mean Compound 1 Plasma Concentration, oral 30 mg/kg, Day 14, 2 h, Overall", "result": 1800, "unit": "ng/mL"}, {"measurement": "concentration at 4 h", "setting": "both sexes, 30 mg/kg, Mean Compound 1 Plasma Concentration, oral 30 mg/kg, Day 14, 4 h, Overall", "result": 2180, "unit": "ng/mL"}, {"measurement": "concentration at 8 h", "setting": "both sexes, 30 mg/kg, Mean Compound 1 Plasma Concentration, oral 30 mg/kg, Day 14, 8 h, Overall", "result": 1920, "unit": "ng/mL"}, {"measurement": "concentration at 12 h", "setting": "both sexes, 30 mg/kg, Mean Compound 1 Plasma Concentration, oral 30 mg/kg, Day 14, 12 h, Overall", "result": 1800, "unit": "ng/mL"}, {"measurement": "concentration at 24 h", "setting": "[4]", "result": 263, "unit": "ng/mL"}, {"measurement": "AUC(0-inf)", "setting": "[5]", "result": 39400, "unit": "ng·h/mL"}, {"measurement": "AUC(0-t)", "setting": "[5]", "result": 37500, "unit": "ng·h/mL"}, {"measurement": "Cmax", "setting": "[5]", "result": 2380, "unit": "ng/mL"}, {"measurement": "Tmax", "setting": "[5]", "result": 4, "unit": "h"}, {"measurement": "half-life", "setting": "[5]", "result": 4.98, "unit": "h"}, {"measurement": "AUC(0-inf)", "setting": "[6]", "result": 37000, "unit": "ng·h/mL"}, {"measurement": "AUC(0-t)", "setting": "[6]", "result": 35000, "unit": "ng·h/mL"}, {"measurement": "Cmax", "setting": "[6]", "result": 2180, "unit": "ng/mL"}, {"measurement": "Tmax", "setting": "[6]", "result": 4, "unit": "h"}, {"measurement": "half-life", "setting": "[6]", "result": 5.23, "unit": "h"}, {"measurement": "concentration at […]", "setting": "both, 2 mg/kg, Mean Compound 1 Plasma Concentration, oral 2 mg/kg, Day 14, […], Overall", "result": 4, "unit": "ng/mL"}, {"measurement": "concentration at […]", "setting": "both, 5 mg/kg, Mean Compound 1 Plasma Concentration, oral 5 mg/kg, Day 1, […], Overall", "result": 20.8, "unit": "ng/mL"}, {"measurement": "concentration at […]", "setting": "both, 5 mg/kg, Mean Compound 1 Plasma Concentration, oral 5 mg/kg, Day 14, […], Overall", "result": 49, "unit": "ng/mL"}, {"measurement": "concentration at […]", "setting": "both, 15 mg/kg, Mean Compound 1 Plasma Concentration, oral 15 mg/kg, Day 1, […], Overall", "result": 72.5, "unit": "ng/mL"}, {"measurement": "concentration at […]", "setting": "both, 15 mg/kg, Mean Compound 1 Plasma Concentration, oral 15 mg/kg, Day 14, […], Overall", "result": 119, "unit": "ng/mL"}, {"measurement": "concentration at […]", "setting": "both, 30 mg/kg, Mean Compound 1 Plasma Concentration, oral 30 mg/kg, Day 1, […], Overall", "result": 150, "unit": "ng/mL"}, {"measurement": "concentration at […]", "setting": "both, 30 mg/kg, Mean Compound 1 Plasma Concentration, oral 30 mg/kg, Day 14, […], Overall", "result": 372, "unit": "ng/mL"}, {"measurement": "concentration at 0.5 h", "setting": "female, 2 mg/kg, Compound 1 Plasma Concentration, Female, Day 1, 0.5 h, daily oral 2 mg/kg (Group 7), individual animals", "result": 139, "unit": "ng/mL"}, {"measurement": "concentration at 2 h", "setting": "female, 2 mg/kg, Compound 1 Plasma Concentration, Female, Day 1, 2 h, daily oral 2 mg/kg (Group 7), individual animals", "result": 216, "unit": "ng/mL"}, {"measurement": "concentration at 12 h", "setting": "female, 2 mg/kg, Compound 1 Plasma Concentration, Female, Day 1, 12 h, daily oral 2 mg/kg (Group 7), individual animals", "result": 91.8, "unit": "ng/mL"}, {"measurement": "concentration at 0.5 h", "setting": "female, 2 mg/kg, Compound 1 Plasma Concentration, Female, Day 14, 0.5 h, daily oral 2 mg/kg (Group 7), individual animals", "result": 192, "unit": "ng/mL"}, {"measurement": "concentration at 1 h", "setting": "[7]", "result": 108, "unit": "ng/mL"}, {"measurement": "concentration at 2 h", "setting": "female, 2 mg/kg, Compound 1 Plasma Concentration, Female, Day 14, 2 h, daily oral 2 mg/kg (Group 7), individual animals", "result": 224, "unit": "ng/mL"}, {"measurement": "concentration at 4 h", "setting": "female, 2 mg/kg, Compound 1 Plasma Concentration, Female, Day 14, 4 h, daily oral 2 mg/kg (Group 7), individual animals", "result": 129, "unit": "ng/mL"}, {"measurement": "concentration at 24 h", "setting": "[7]", "result": 21.6, "unit": "ng/mL"}, {"measurement": "concentration at […]", "setting": "female, 2 mg/kg, Compound 1 Plasma Concentration, Female, Day 14, […], daily oral 2 mg/kg (Group 7), individual animals", "result": 20, "unit": "ng/mL"}]}]}
